Laboratory results reported in US11180474B2 (BRISTOL-MYERS SQUIBB COMPANY, priority 2016, dated 2021).

Each compound was assayed against T1, human TLR8 (Homo sapiens, UniProt Q9NR97) (assay: TLR8 inhibition reporter assay (HEK-Blue cells, SEAP reporter, R848 stimulation)). Conditions: HEK-Blue cells overexpressing human TLR8, R848 15.9 μM.
T1 construct: host or cells: HEK-Blue cells
T1 sequence (Q9NR97 27-1041): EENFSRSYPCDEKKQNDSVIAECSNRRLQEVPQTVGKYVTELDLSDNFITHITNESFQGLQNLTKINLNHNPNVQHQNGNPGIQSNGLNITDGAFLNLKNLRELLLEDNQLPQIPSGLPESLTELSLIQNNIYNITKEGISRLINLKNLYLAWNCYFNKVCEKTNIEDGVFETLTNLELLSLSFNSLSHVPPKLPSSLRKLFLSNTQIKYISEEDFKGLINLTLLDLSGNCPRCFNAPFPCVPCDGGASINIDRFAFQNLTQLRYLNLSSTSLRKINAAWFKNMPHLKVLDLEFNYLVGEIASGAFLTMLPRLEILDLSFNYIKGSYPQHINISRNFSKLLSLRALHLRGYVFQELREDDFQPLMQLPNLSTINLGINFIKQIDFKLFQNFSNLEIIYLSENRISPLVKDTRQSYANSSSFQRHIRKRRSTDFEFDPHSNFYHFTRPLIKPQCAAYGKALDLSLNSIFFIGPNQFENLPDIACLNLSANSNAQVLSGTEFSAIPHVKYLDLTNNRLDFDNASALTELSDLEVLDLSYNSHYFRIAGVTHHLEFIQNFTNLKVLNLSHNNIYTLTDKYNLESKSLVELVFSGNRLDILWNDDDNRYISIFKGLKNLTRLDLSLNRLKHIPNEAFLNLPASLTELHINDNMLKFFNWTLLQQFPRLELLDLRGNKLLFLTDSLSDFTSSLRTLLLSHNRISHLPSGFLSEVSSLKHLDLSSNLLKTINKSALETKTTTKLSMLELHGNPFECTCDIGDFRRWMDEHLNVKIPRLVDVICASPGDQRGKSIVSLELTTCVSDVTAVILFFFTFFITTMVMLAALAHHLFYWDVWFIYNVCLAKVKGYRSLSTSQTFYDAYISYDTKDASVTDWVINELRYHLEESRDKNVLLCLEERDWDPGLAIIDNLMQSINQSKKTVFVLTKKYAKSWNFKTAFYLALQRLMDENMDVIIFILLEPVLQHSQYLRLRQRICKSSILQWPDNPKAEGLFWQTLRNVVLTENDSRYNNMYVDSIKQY
Assay type: cell-based
Outline: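 Dose-response testing from 0.05 nM to 50 μM final was done on reporter cells for 22 hours at 37° C. Secreted SEAP was then detected, and inhibition was calculated as percent reduction of the agonist-plus-DMSO signal compared with wells given a known inhibitor.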

| IC50 | Compound |
| --- | --- |
| 1030 nM | COc1ccc(-c2[nH]c3ccc(C4CCN(C(=O)C5CCN(C(C)=O)CC5)CC4)cc3c2CC(F)(F)F)cc1OC [Example 345, 1-(4-(4-(2-(3,4-dimethoxyphenyl)-3-(2,2,2-trifluoroethyl)-1H-indol-5-yl)piperidine-1-carbonyl)piperidin-1-yl)ethan-1-one] |
| 529 nM | COc1ccc(-c2[nH]c3ccc(C4CCN(C(=O)CCC(=O)N(C)C)CC4)cc3c2CC(F)(F)F)cc1OC [Example 346, 4-(4-(2-(3,4-dimethoxyphenyl)-3-(2,2,2-trifluoroethyl)-1H-indol-5-yl)piperidin-1-yl)-N,N-dimethyl-4-oxobutanamide] |
| 767 nM | COc1ccc(-c2[nH]c3ccc(C4CCN(C(=O)CS(C)(=O)=O)CC4)cc3c2CC(F)(F)F)cc1OC [Example 347, 1-(4-(2-(3,4-dimethoxyphenyl)-3-(2,2,2-trifluoroethyl)-1H-indol-5-yl)piperidin-1-yl)-2-(methylsulfonyl)ethan-1-one] |
| 1420 nM | COc1ccc(-c2[nH]c3ccc(C4CCN(C(=O)CCc5cccnc5)CC4)cc3c2CC(F)(F)F)cc1OC [Example 348, 1-(4-(2-(3,4-dimethoxyphenyl)-3-(2,2,2-trifluoroethyl)-1H-indol-5-yl)piperidin-1-yl)-3-(pyridin-3-yl) propan-1-one] |
| 671 nM | COc1ccc(-c2[nH]c3ccc(C4CCN(C(=O)COc5cccnc5)CC4)cc3c2CC(F)(F)F)cc1OC [Example 349, 1-(4-(2-(3,4-dimethoxyphenyl)-3-(2,2,2-trifluoroethyl)-1H-indol-5-yl)piperidin-1-yl)-2-(pyridin-3-yloxy)ethan-1-one] |
| 2050 nM | COc1ccc(-c2[nH]c3ccc(C4CCN(C(=O)CCC(F)(F)F)CC4)cc3c2CC(F)(F)F)cc1OC [Example 350, 1-(4-(2-(3,4-dimethoxyphenyl)-3-(2,2,2-trifluoroethyl)-1H-indol-5-yl)piperidin-1-yl)-4,4,4-trifluorobutan-1-one] |
| 57 nM | COc1ccc(-c2[nH]c3ccc(C4CCN(C(=O)CCCN(C)C)CC4)cc3c2CC(F)(F)F)cc1OC [Example 351, 1-(4-(2-(3,4-dimethoxyphenyl)-3-(2,2,2-trifluoroethyl)-1H-indol-5-yl)piperidin-1-yl)-4-(dimethylamino)butan-1-one] |
| 765 nM | COc1ccc(-c2[nH]c3ccc(C4CCN(C(=O)C[C@H](C)O)CC4)cc3c2CC(F)(F)F)cc1OC [Example 352, (S)-1-(4-(2-(3,4-dimethoxyphenyl)-3-(2,2,2-trifluoroethyl)-1H-indol-5-yl)piperidin-1-yl)-3-hydroxybutan-1-one] |
| 964 nM | COc1ccc(-c2[nH]c3ccc(C4CCN(C(=O)C[C@@H](C)O)CC4)cc3c2CC(F)(F)F)cc1OC [Example 353, (R)-1-(4-(2-(3,4-dimethoxyphenyl)-3-(2,2,2-trifluoroethyl)-1H-indol-5-yl)piperidin-1-yl)-3-hydroxybutan-1-one] |
| 82 nM | COc1ccc(-c2[nH]c3ccc(C4CCN(C(=O)CN(C)C)CC4)cc3c2CC(F)(F)F)cc1OC [Example 354, 1-(4-(2-(3,4-dimethoxyphenyl)-3-(2,2,2-trifluoroethyl)-1H-indol-5-yl)piperidin-1-yl)-2-(dimethylamino)ethan-1-one] |
| 41 nM | COc1ccc(-c2[nH]c3ccc(C4CCN(C)CC4)cc3c2CC(F)(F)F)cc1OC [Example 355, 2-(3,4-dimethoxyphenyl)-5-(1-methylpiperidin-4-yl)-3-(2,2,2-trifluoroethyl)-1H-indole] |
| 626 nM | CCNC(=O)N1CCC(c2ccc3[nH]c(-c4ccc(OC)c(OC)c4)c(CC(F)(F)F)c3c2)CC1 [Example 356, 4-(2-(3,4-dimethoxyphenyl)-3-(2,2,2-trifluoroethyl)-1H-indol-5-yl)-N-ethylpiperidine-1-carboxamide] |
| 943 nM | COc1ccc(-c2[nH]c3ccc(C4CCN(C(=O)NCCc5ccccc5)CC4)cc3c2CC(F)(F)F)cc1OC [Example 357, 4-(2-(3,4-dimethoxyphenyl)-3-(2,2,2-trifluoroethyl)-1H-indol-5-yl)-N-phenethylpiperidine-1-carboxamide] |
| 2920 nM | COc1ccc(-c2[nH]c3ccc(C4CCN(C(=O)NCc5ccco5)CC4)cc3c2CC(F)(F)F)cc1OC [Example 358, 4-(2-(3,4-dimethoxyphenyl)-3-(2,2,2-trifluoroethyl)-1H-indol-5-yl)-N-(furan-2-ylmethyl)piperidine-1-carboxamide] |
| 63 nM | COc1ccc(-c2[nH]c3ccc(C4CCN(CC(=O)N5CCC(N6CCCCC6)CC5)CC4)cc3c2CC(F)(F)F)cc1OC [Example 359, 1-([1,4′-bipiperidin]-1′-yl)-2-(4-(2-(3,4-dimethoxyphenyl)-3-(2,2,2-trifluoroethyl)-1H-indol-5-yl)piperidin-1-yl)ethan-1-one] |
| 43 nM | COc1ccc(-c2[nH]c3ccc(C4CCN(CC(=O)NCCC5CCCN5C)CC4)cc3c2CC(F)(F)F)cc1OC (stereo not shown) [Example 360, 2-(4-(2-(3,4-dimethoxyphenyl)-3-(2,2,2-trifluoroethyl)-1H-indol-5-yl)piperidin-1-yl)-N-(2-(1-methylpyrrolidin-2-yl)ethyl) acetamide] |
| 109 nM | COc1ccc(-c2[nH]c3ccc(C4CCN(CC(=O)N5CCN(C(C)=O)CC5)CC4)cc3c2CC(F)(F)F)cc1OC [Example 361, 1-(4-acetylpiperazin-1-yl)-2-(4-(2-(3,4-dimethoxyphenyl)-3-(2,2,2-trifluoroethyl)-1H-indol-5-yl)piperidin-1-yl)ethan-1-one] |
| 109 nM | COc1ccc(-c2[nH]c3ccc(C4CCN(CC(=O)N5CCN(C(C)C)CC5)CC4)cc3c2CC(F)(F)F)cc1OC [Example 362, 2-(4-(2-(3,4-dimethoxyphenyl)-3-(2,2,2-trifluoroethyl)-1H-indol-5-yl)piperidin-1-yl)-1-(4-isopropylpiperazin-1-yl)ethan-1-one] |
| 44 nM | COc1ccc(-c2[nH]c3ccc(C4CCN(CC(=O)N5CCC(N6CCN(C)CC6)CC5)CC4)cc3c2CC(F)(F)F)cc1OC [Example 363, 2-(4-(2-(3,4-dimethoxyphenyl)-3-(2,2,2-trifluoroethyl)-1H-indol-5-yl)piperidin-1-yl)-1-(4-(4-methylpiperazin-1-yl)piperidin-1-yl) ethan-1-one] |
| 76 nM | COc1ccc(-c2[nH]c3ccc(C4CCN(CC(=O)N5CCC(N(C)C)CC5)CC4)cc3c2CC(F)(F)F)cc1OC [Example 364, 2-(4-(2-(3,4-dimethoxyphenyl)-3-(2,2,2-trifluoroethyl)-1H-indol-5-yl)piperidin-1-yl)-1-(4-(dimethylamino)piperidin-1-yl)ethan-1-one] |
| 24 nM | COc1ccc(-c2[nH]c3ccc(C4CCN(CC(=O)N(C)CCCN(C)C)CC4)cc3c2CC(F)(F)F)cc1OC [Example 365, 2-(4-(2-(3,4-dimethoxyphenyl)-3-(2,2,2-trifluoroethyl)-1H-indol-5-yl)piperidin-1-yl)-N-(3-(dimethylamino)propyl)-N-methylacetamide] |
| 23 nM | COc1ccc(-c2[nH]c3ccc(C4CCN(CC(=O)N5CCN(c6ccncc6)CC5)CC4)cc3c2CC(F)(F)F)cc1OC [Example 366, 2-(4-(2-(3,4-dimethoxyphenyl)-3-(2,2,2-trifluoroethyl)-1H-indol-5-yl)piperidin-1-yl)-1-(4-(pyridin-4-yl)piperazin-1-yl) ethan-1-one] |
| 36 nM | COc1ccc(-c2[nH]c3ccc(C4CCN(CC(=O)N(C)CCN(C)C)CC4)cc3c2CC(F)(F)F)cc1OC [Example 367, 2-(4-(2-(3,4-dimethoxyphenyl)-3-(2,2,2-trifluoroethyl)-1H-indol-5-yl)piperidin-1-yl)-N-(2-(dimethylamino)ethyl)-N-methylacetamide] |
| 74 nM | COc1ccc(-c2[nH]c3ccc(C4CCN(CC(=O)N5CCN(c6ncccn6)CC5)CC4)cc3c2CC(F)(F)F)cc1OC [Example 368, 2-(4-(2-(3,4-dimethoxyphenyl)-3-(2,2,2-trifluoroethyl)-1H-indol-5-yl)piperidin-1-yl)-1-(4-(pyrimidin-2-yl)piperazin-1-yl)ethan-1-one] |
| 43 nM | COc1ccc(-c2[nH]c3ccc(C4CCN(CC(=O)N5CCC(C(N)=O)CC5)CC4)cc3c2CC(F)(F)F)cc1OC [Example 369, 1-(2-(4-(2-(3,4-dimethoxyphenyl)-3-(2,2,2-trifluoroethyl)-1H-indol-5-yl)piperidin-1-yl)acetyl)piperidine-4-carboxamide] |
